Data on 6 compounds can be found in ChEMBL document CHEMBL3272269, “Synthesis and antileukemic activities of furanyl, pyranyl, and ribosyl derivatives of 4-(3,3-dimethyl-1-triazeno)imidazole-5-carboxamide and 3-(3,3-dimethyl-1-triazeno)pyrazole-4-carboxamide” (J Med Chem, 1979).

Active and inactive are the calls of the source. No cut-off for these calls is given here.

Data set [1] deals with L1210. As to the kind of experiment: Antitumor activity against mouse L1210 cells allografted in mouse assessed as increase in survival at 200 mg/kg administered on day 1 followed by 5 injections with 1 day interval relative to control. The class given is functional.
The subject of data set [2] is Mus musculus. Briefly: Toxicity in mouse L1210 cells allografted mouse assessed as reduction in body weight at 200 mg/kg administered on day 1 followed by 5 injections with 1 day interval. More on the design: dose 200 mg/kg. Conditions: in vivo, 24 h. Type of data set: organism-based.
Data set [3] deals with L1210. As to the kind of experiment: Antitumor activity against mouse L1210 cells allografted in mouse assessed as survival at 200 mg/kg administered on day 1 followed by 5 injections with 1 day interval. Type of data set: functional, organism-based. More on the design: dose 200 mg/kg.
For data set [4], the system named is Mus musculus. Briefly: Toxicity in mouse L1210 cells allografted mouse assessed as reduction in body weight at 100 mg/kg administered on day 1 followed by 5 injections with 1 day interval. Also on record: dose 100 mg/kg. Type of data set: organism-based. The following applies: in vivo, 24 h.
The subject of data set [5] is L1210. Briefly: Antitumor activity against mouse L1210 cells allografted in mouse assessed as increase in survival at 100 mg/kg administered on day 1 followed by 5 injections with 1 day interval relative to control. Type of data set: functional.
Data set [6] concerns L1210. As to the kind of experiment: Antitumor activity against mouse L1210 cells allografted in mouse assessed as survival at 100 mg/kg administered on day 1 followed by 5 injections with 1 day interval. Type of data set: functional, organism-based. Also on record: dose 100 mg/kg.
Data set [7] has as its system Mus musculus. Briefly: Toxicity in mouse L1210 cells allografted BDF1 mouse assessed as reduction in body weight at 120 mg/kg administered on day 1 followed by 5 injections with 1 day interval. Type of data set: organism-based. More on the design: dose 120 mg/kg. Conditions: in vivo, 24 h.
For data set [8], the system named is L1210. As to the kind of experiment: Antitumor activity against mouse L1210 cells allografted in BDF1 mouse assessed as increase in survival at 120 mg/kg administered on day 1 followed by 5 injections with 1 day interval relative to control. The class given is functional.
Data set [9] relates to L1210. Briefly: Antitumor activity against mouse L1210 cells allografted in BDF1 mouse assessed as increase in survival at 125 mg/kg administered on day 1 followed by 5 injections with 1 day interval relative to control. The class given is functional.
Data set [10] deals with Mus musculus. Briefly: Toxicity in mouse L1210 cells allografted BDF1 mouse assessed as reduction in body weight at 80 mg/kg administered on day 1 followed by 5 injections with 1 day interval. More on the design: dose 80 mg/kg. Type of data set: organism-based. Conditions: in vivo, 24 h.
Data set [11] deals with L1210. Briefly: Antitumor activity against mouse L1210 cells allografted in BDF1 mouse assessed as increase in survival at 180 mg/kg administered on day 1 followed by 5 injections with 1 day interval relative to control. Type of data set: functional.
Data set [12] concerns L1210. As to the kind of experiment: Antitumor activity against mouse L1210 cells allografted in BDF1 mouse assessed as increase in survival at 53 mg/kg administered on day 1 followed by 5 injections with 1 day interval relative to control. The class given is functional.
The test system of data set [13] is L1210. Briefly: Antitumor activity against mouse L1210 cells allografted in BDF1 mouse assessed as increase in survival at 80 mg/kg administered on day 1 followed by 5 injections with 1 day interval relative to control. Type of data set: functional.
In data set [14] the test system is Mus musculus. As to the kind of experiment: Toxicity in mouse L1210 cells allografted BDF1 mouse assessed as reduction in body weight at 180 mg/kg administered on day 1 followed by 5 injections with 1 day interval. Also on record: dose 180 mg/kg. The class given is organism-based. Conditions: in vivo, 24 h.
Data set [15] deals with L1210. Briefly: Antitumor activity against mouse L1210 cells allografted in BDF1 mouse assessed as survival at 80 mg/kg administered on day 1 followed by 5 injections with 1 day interval. The class given is functional, organism-based. Also on record: dose 80 mg/kg.
Data set [16] concerns L1210. As to the kind of experiment: Antitumor activity against mouse L1210 cells allografted in BDF1 mouse assessed as survival at 180 mg/kg administered on day 1 followed by 5 injections with 1 day interval. Type of data set: functional, organism-based. More on the design: dose 180 mg/kg.
Data set [17] deals with Mus musculus. As to the kind of experiment: Toxicity in mouse L1210 cells allografted BDF1 mouse assessed as reduction in body weight at 53 mg/kg administered on day 1 followed by 5 injections with 1 day interval. Type of data set: organism-based. Also on record: dose 53 mg/kg. The following applies: in vivo, 24 h.
Data set [18] deals with Mus musculus. As to the kind of experiment: Toxicity in mouse L1210 cells allografted BDF1 mouse assessed as reduction in body weight at 125 mg/kg administered on day 1 followed by 5 injections with 1 day interval. The class given is organism-based. Also on record: dose 125 mg/kg. The following applies: in vivo, 24 h.
Data set [19] relates to L1210. Briefly: Antitumor activity against mouse L1210 cells allografted in BDF1 mouse assessed as survival at 53 mg/kg administered on day 1 followed by 5 injections with 1 day interval. Type of data set: functional, organism-based. Also on record: dose 53 mg/kg.
For data set [20], the system named is L1210. Briefly: Antitumor activity against mouse L1210 cells allografted in BDF1 mouse assessed as survival at 125 mg/kg administered on day 1 followed by 5 injections with 1 day interval. More on the design: dose 125 mg/kg. Type of data set: functional, organism-based.
For data set [21], the system named is L1210. Briefly: Antitumor activity against mouse L1210 cells allografted in mouse assessed as increase in survival at 400 mg/kg administered on day 1 followed by 5 injections with 1 day interval relative to control. Type of data set: functional.
Data set [22] has as its system Mus musculus. Briefly: Toxicity in mouse L1210 cells allografted mouse assessed as reduction in body weight at 400 mg/kg administered on day 1 followed by 5 injections with 1 day interval. The class given is organism-based. More on the design: dose 400 mg/kg. The following applies: in vivo, 24 h.
The subject of data set [23] is L1210. As to the kind of experiment: Antitumor activity against mouse L1210 cells allografted in mouse assessed as survival at 400 mg/kg administered on day 1 followed by 5 injections with 1 day interval. The class given is functional, organism-based. Also on record: dose 400 mg/kg.
For data set [24], the system named is L1210. Briefly: Antitumor activity against mouse L1210 cells allografted in mouse assessed as increase in survival at 200 mg/kg administered on day 1 followed by 3 injections with 4 day interval relative to control. Type of data set: functional.
Data set [25] has as its system Mus musculus. As to the kind of experiment: Toxicity in mouse L1210 cells allografted BDF1 mouse assessed as reduction in body weight at 100 mg/kg administered on day 1 followed by 3 injections with 4 day interval. The class given is organism-based. Also on record: dose 100 mg/kg. Conditions: in vivo, 96 h.
In data set [26] the test system is L1210. As to the kind of experiment: Antitumor activity against mouse L1210 cells allografted in mouse assessed as survival at 100 mg/kg administered on day 1 followed by 3 injections with 4 day interval. The class given is functional, organism-based. More on the design: dose 100 mg/kg.
The subject of data set [27] is Mus musculus. As to the kind of experiment: Toxicity in mouse L1210 cells allografted BDF1 mouse assessed as reduction in body weight at 400 mg/kg administered on day 1 followed by 3 injections with 4 day interval. Also on record: dose 400 mg/kg. Conditions: in vivo, 96 h. The class given is organism-based.
The subject of data set [28] is L1210. As to the kind of experiment: Antitumor activity against mouse L1210 cells allografted in mouse assessed as survival at 400 mg/kg administered on day 1 followed by 3 injections with 4 day interval. Type of data set: functional, organism-based. More on the design: dose 400 mg/kg.
The subject of data set [29] is L1210. As to the kind of experiment: Antitumor activity against mouse L1210 cells allografted in mouse assessed as increase in survival at 400 mg/kg administered on day 1 followed by 3 injections with 4 day interval relative to control. Type of data set: functional.
Data set [30] has as its system Mus musculus. As to the kind of experiment: Toxicity in mouse L1210 cells allografted BDF1 mouse assessed as reduction in body weight at 200 mg/kg administered on day 1 followed by 3 injections with 4 day interval. Conditions: in vivo, 96 h. More on the design: dose 200 mg/kg. Type of data set: organism-based.
The subject of data set [31] is L1210. As to the kind of experiment: Antitumor activity against mouse L1210 cells allografted in mouse assessed as increase in survival at 100 mg/kg administered on day 1 followed by 3 injections with 4 day interval relative to control. Type of data set: functional.
Data set [32] has as its system L1210. Briefly: Antitumor activity against mouse L1210 cells allografted in mouse assessed as survival at 200 mg/kg administered on day 1 followed by 3 injections with 4 day interval. The class given is functional, organism-based. Also on record: dose 200 mg/kg.

By T/C is commonly meant the ratio of treated to control. In the case of `CC(=O)OC[C@H]1O[C@@H](n2cnc(C(N)=O)c2/N=N/N(C)C)[C@H](OC(C)=O)[C@@H]1OC(C)=O`, the T/C was 95% in the data set on L1210 [1] and 104% in the data set on L1210 [5]. Also, the values for the Activity in the data set with Mus musculus [2] and in the data set with Mus musculus [4] were 0.9 g and 0.3 g, respectively. Besides, the result with L1210 [3] and in the data set with L1210 [6] was Active.

As for `CN(C)/N=N/c1[nH]cnc1C(N)=O` [DACARBAZINE], the Activity in the data set on Mus musculus [7] stood at 2.2 g; in the data set on Mus musculus [10] it was 2 g; with Mus musculus [14] it was 2.6 g; in the data set on Mus musculus [17], 0.8 g; in the data set on Mus musculus [18], 2.1 g. Further, the T/C with L1210 [8] was 157%; in the data set with L1210 [9], 147%; in the data set with L1210 [11] it was 142%; in the data set with L1210 [12] it was 126%; with L1210 [13] it was 147%. Moreover, the result with L1210 [15], in the data set with L1210 [16], with L1210 [19] and with L1210 [20] was Active.

Take `CC(=O)OC[C@H]1O[C@@H](n2cnc(/N=N/N(C)C)c2C(N)=O)[C@H](OC(C)=O)[C@@H]1OC(C)=O`: the T/C with L1210 [21] is reported as 157%; with L1210 [1], 124%; in the data set with L1210 [5], 123%. The Activity in the data set on Mus musculus [22] worked out at 2.2 g; in the data set with Mus musculus [2] it was 1.6 g; with Mus musculus [4], 1.5 g. Further, the result with L1210 [3], in the data set with L1210 [6] and in the data set with L1210 [23] was Active.

With `CN(C)/N=N/c1ncn(C2CCCO2)c1C(N)=O` (configuration not stated), the values for the T/C in the data set with L1210 [1] and in the data set on L1210 [5] were 115% and 125%, respectively. Besides, the figures for the Activity with Mus musculus [2] and in the data set with Mus musculus [4] were 4.3 g and 1.9 g, respectively. Also, the result in the data set with L1210 [3] and in the data set with L1210 [6] was Active.

For the compound `CN(C)/N=N/c1c(C(N)=O)cnn1C1CCCCO1` (configuration not stated), the values for the T/C in the data set with L1210 [24], in the data set on L1210 [29] and in the data set on L1210 [31] were 117%, 123% and 107%, respectively. The Activity in the data set with Mus musculus [25] is 2.2 g; in the data set on Mus musculus [27], 3.5 g; in the data set on Mus musculus [30], 3.1 g. Also, the result in the data set on L1210 [26], with L1210 [28] and in the data set on L1210 [32] was Active.

As for `CC(=O)OC[C@H]1O[C@@H](n2ncc(C(N)=O)c2/N=N/N(C)C)[C@H](OC(C)=O)[C@@H]1OC(C)=O`, the T/C with L1210 [1] is on record as 122%. Besides, the Activity in the data set on Mus musculus [2] is given as 2.3 g. Also, the result in the data set with L1210 [3] was Active.
